Among the data in ChEMBL document CHEMBL1141293, “Cassane furanoditerpenoids from the seed kernels of Caesalpinia bonduc from Thailand” (J Nat Prod, 2007) are Activity and IC50 values, retold here.

Experiment [1] has as its system Plasmodium falciparum. As to the kind of experiment: Antimalarial activity against multidrug-resistant Plasmodium falciparum K1 at 10 uM by microculture radioisotope assay. The format is functional, organism-based.
A further experiment has as its system BT-474. As to the kind of experiment: Cytotoxicity against human BT474 cells at 10 ug/ml by MTT assay. Format: functional, cell-based.
The subject of a further experiment is CHAGO. The experiment in a line: Cytotoxicity against human CHAGO cells at 10 ug/ml by MTT assay. Format: functional, cell-based.
The test system of the next experiment is HepG2. As to the kind of experiment: Cytotoxicity against human HepG2 cells at 10 ug/ml by MTT assay. The format is functional, cell-based.
In the next experiment the test system is KATO3. The experiment in a line: Cytotoxicity against human KATO3 cells at 10 ug/ml by MTT assay. Format: functional, cell-based.
A further experiment deals with SW-620. As to the kind of experiment: Cytotoxicity against human SW620 cells at 10 ug/ml by MTT assay. The format is functional, cell-based.
The test system of experiment [2] is Plasmodium falciparum. As to the kind of experiment: Antimalarial activity against multidrug-resistant Plasmodium falciparum K1 by microculture radioisotope assay. Format: functional, organism-based.

Active and inactive are the calls of the source. No cut-off for these calls is given here.

For `CC(=O)O[C@@H]1[C@@H]2[C@H](Cc3occc3[C@@]2(C)O)[C@@]2(C)C(=O)CCC(C)(C)[C@]2(O)[C@H]1OC(C)=O`, in the experiment with Plasmodium falciparum [1], the outcome was inactive. Further, the Activity result with BT-474, with CHAGO, in the experiment on HepG2, in the experiment with KATO3 and in the experiment on SW-620 was “Not toxic” in each case.

With `C[C@H]1[C@@H](O)O[C@@H]2O[C@@]3(C)CC[C@H]4[C@H](C)CC[C@@H]1[C@@]24OO3` [ARTENIMOL], the midpoint of inhibition in the experiment on Plasmodium falciparum [2], the IC50, lay at 4 nM.

For the molecule `COC(=O)[C@@H]1c2ccoc2C[C@H]2[C@H]1[C@@H](OC(C)=O)[C@H](O)[C@@]1(O)C(C)(C)CCC(=O)[C@]21C` [BONDUCELLPIN E], in the experiment with Plasmodium falciparum [2], inhibition was half-maximal at 1600 nM (IC50). Besides, the Activity entry in the experiment with BT-474, in the experiment on CHAGO, with HepG2, with KATO3 and with SW-620 was “Not toxic” in each case.

The molecule `C=C1c2ccoc2C[C@H]2[C@H]1[C@@H](OC(C)=O)[C@H](O)[C@@]1(O)C(C)(C)CCC(=O)[C@]21C` [BONDUCELLPIN F] gave an IC50 in the experiment with Plasmodium falciparum [2] of 5800 nM. The Activity entry in the experiment with BT-474, in the experiment on CHAGO, in the experiment with HepG2, in the experiment on KATO3 and with SW-620 was “Not toxic” each time.

As to `C=C1c2ccoc2C[C@H]2[C@H]1[C@@H](O)[C@H](OC(C)=O)[C@@]1(O)C(C)(C)CC[C@H](OC(C)=O)[C@]21C` [BONDUCELLPIN G], the IC50 in the experiment with Plasmodium falciparum [2] amounted to 3800 nM. Besides, the Activity entry in the experiment with BT-474, in the experiment on CHAGO, with HepG2, with KATO3 and in the experiment on SW-620 was “Not toxic” in each case.
